ChEMBL document CHEMBL5038646, “Structure-Activity Relationship Studies of New Sinapic Acid Phenethyl Ester Analogues Targeting the Biosynthesis of 5-Lipoxygenase Products: The Role of Phenolic Moiety, Ester Function, and Bioisosterism” (J Nat Prod, 2022)
Calls of active or inactive are those of the source. The calls are words filed in the database; no cut-off is given here.

Assays:
[1] = target: T1, Polyunsaturated fatty acid 5-lipoxygenase (Homo sapiens) (UniProt P09917); experiment: Inhibition of 5-LO in A23187-stimulated human HEK293 cells assessed as reduction in 5-LO product level at 1 uM preincubated for 5 mins followed by A23187, arachidonic acid addition and measured after 15 mins by RP-HPLC analysis relative to control; type: cell-based
T1 sequence (whole entry): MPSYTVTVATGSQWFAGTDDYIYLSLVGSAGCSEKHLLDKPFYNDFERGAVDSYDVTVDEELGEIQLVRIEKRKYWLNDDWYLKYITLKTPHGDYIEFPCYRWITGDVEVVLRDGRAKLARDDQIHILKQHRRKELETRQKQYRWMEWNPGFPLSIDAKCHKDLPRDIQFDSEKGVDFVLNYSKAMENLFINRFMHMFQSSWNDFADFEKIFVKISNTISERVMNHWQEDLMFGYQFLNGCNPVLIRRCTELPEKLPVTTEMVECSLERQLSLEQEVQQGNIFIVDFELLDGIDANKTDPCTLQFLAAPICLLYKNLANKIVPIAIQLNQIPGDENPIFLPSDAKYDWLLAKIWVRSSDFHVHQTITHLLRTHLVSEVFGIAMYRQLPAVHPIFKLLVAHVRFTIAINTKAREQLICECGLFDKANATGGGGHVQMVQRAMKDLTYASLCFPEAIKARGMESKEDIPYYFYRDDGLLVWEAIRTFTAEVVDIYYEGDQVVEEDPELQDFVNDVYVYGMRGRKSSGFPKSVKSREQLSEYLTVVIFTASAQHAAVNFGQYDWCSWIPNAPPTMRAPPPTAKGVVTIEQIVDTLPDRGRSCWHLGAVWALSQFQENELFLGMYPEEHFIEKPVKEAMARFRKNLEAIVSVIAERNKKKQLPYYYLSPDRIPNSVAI

[2] = target: T2, Polyunsaturated fatty acid 5-lipoxygenase (Homo sapiens, UniProt P09917); experiment: Inhibition of 5-LO in thapsigargin stimulated human PMNL cells assessed as reduction in 5-LO product level preincubated for 5 mins followed by thapsigargin addition and measured after 15 mins by RP-HPLC analysis; type: cell-based
T2 sequence (P09917 whole entry): T1 sequence (whole entry)

| Structure (SMILES) | inhibition [1] | IC50 [2] |
| --- | --- | --- |
| COc1cc(/C=C/C(=O)OCCc2ccc(C)cc2)cc(OC)c1O | Active |  |
| COc1cc(/C=C/COCc2ccccc2)cc(OC)c1O | Active | 1100 nM |
| COc1cc(/C=C/C(=O)NCCc2ccccc2)cc(OC)c1O | inactive | 960 nM |
| COc1cc(CCC(=O)OCCc2ccccc2)cc(OC)c1O | Active | 590 nM |
| COc1cc(CC(=O)OCCc2ccccc2)cc(OC)c1O | inactive | 1100 nM |
| COc1ccc(CCOC(=O)/C=C/c2cc(OC)c(O)c(OC)c2)cc1 | Active |  |
| COc1cc(/C=C/C(=O)OCCc2ccccc2)cc(OC)c1O | Active |  |
| COc1cc(/C=C/C(=O)OC(C)C)cc(OC)c1O | inactive |  |
| COc1cccc(/C=C/C(=O)OCCc2ccccc2)c1OC | inactive |  |
| COc1cc(/C=C/C(=O)OCCc2ccccc2F)cc(OC)c1O | Active | 240 nM |
| COc1cc(/C=C/C(=O)OCCc2ccccc2C)cc(OC)c1O | Active | 240 nM |
| CCCOC(=O)/C=C/c1cc(OC)c(O)c(OC)c1 | Active | 710 nM |
| COc1cc(/C=C/C(=O)OCCc2cccc(C(F)(F)F)c2)cc(OC)c1O | Active | 200 nM |
| CC(c1cc2ccccc2s1)N(O)C(N)=O (stereo not given) | Active |  |
| COc1cc(/C=C/C(=O)OCCc2ccccc2C(F)(F)F)cc(OC)c1O | Active | 350 nM |
| COc1cc(/C=C/C(=O)OCCc2ccccc2)cc(OC)c1OC | inactive |  |
| COc1cc(/C=C/C(=O)OCCC2CCCCC2)cc(OC)c1O | Active |  |
| COc1cc(CCC(=O)CCc2ccccc2)cc(OC)c1O | Active | 420 nM |

| Structure (SMILES) | inhibition [1] | IC50 [2] |
| --- | --- | --- |
| COc1cc(/C=C/C(=O)OCCc2ccc(C(F)(F)F)cc2)cc(OC)c1O | Active |  |
| COc1cccc(CCOC(=O)/C=C/c2cc(OC)c(O)c(OC)c2)c1 | Active | 210 nM |
| COc1ccccc1CCOC(=O)/C=C/c1cc(OC)c(O)c(OC)c1 | Active | 250 nM |
| COc1cc(/C=C/C(=O)OCCc2ccccc2)cc(OC)c1OC(C)=O | Active | 270 nM |
| COc1cc(/C=C/c2nc(CCc3ccccc3)no2)cc(OC)c1O | Active | 270 nM |
| COc1cc(/C=C/C(=O)OCCCc2ccccc2)cc(OC)c1O | Active | 340 nM |
| COc1cc(/C=C/c2nc(Cc3ccccc3)no2)cc(OC)c1O | Active | 300 nM |
| COc1cc(/C=C/C(=O)CCc2ccccc2)cc(OC)c1O | Active |  |
| COC(=O)/C=C/c1cc(OC)c(O)c(OC)c1 | inactive |  |
| COc1ccc(OC)c(/C=C/C(=O)OCCc2ccccc2)c1 | inactive |  |
| CCOC(=O)/C=C/c1cc(OC)c(O)c(OC)c1 | inactive |  |
| COc1cc(/C=C/COCCCc2ccccc2)cc(OC)c1O | Active | 560 nM |
| COc1cc(/C=C/C(=O)OCCc2cccc(F)c2)cc(OC)c1O | Active | 230 nM |
| COc1cc(/C=C/C(=O)OCCc2ccccc2)cc(OC)c1 | inactive |  |
| C#CCOC(=O)/C=C/c1cc(OC)c(O)c(OC)c1 | Active |  |
| COc1cc(C(=O)OCCc2ccccc2)cc(OC)c1O | inactive |  |
| COc1cc(/C=C/C(=O)OCCc2ccc(F)cc2)cc(OC)c1O | Active |  |
| COc1cc(/C=C/C(=O)OCCc2cccc(C)c2)cc(OC)c1O | Active | 200 nM |
